Measured values: paper PMC2243256 (Applied Microbiology and Biotechnology, 2008)

Target: T1, PuORh (putrescine oxidase) (Rhodococcus erythropolis, UniProt B0F9F6)
T1 sequence (B0F9F6 1-453): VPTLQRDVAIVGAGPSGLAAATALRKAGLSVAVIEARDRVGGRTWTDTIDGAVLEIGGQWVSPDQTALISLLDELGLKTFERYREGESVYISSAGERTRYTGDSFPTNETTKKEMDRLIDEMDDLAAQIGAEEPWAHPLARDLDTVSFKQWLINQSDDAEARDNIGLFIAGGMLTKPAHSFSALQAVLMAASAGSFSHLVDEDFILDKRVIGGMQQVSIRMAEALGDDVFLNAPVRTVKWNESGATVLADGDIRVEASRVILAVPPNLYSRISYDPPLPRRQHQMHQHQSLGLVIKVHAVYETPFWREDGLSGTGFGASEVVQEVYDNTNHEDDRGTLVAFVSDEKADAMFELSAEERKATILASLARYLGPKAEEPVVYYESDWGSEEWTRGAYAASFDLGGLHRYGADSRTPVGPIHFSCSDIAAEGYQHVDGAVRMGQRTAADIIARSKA
Test: absorbance spectrum, release by trichloroacetic acid and heat
Type: binding
Conditions: non-covalent; pH 8.0, 25°C for spectra

## Cc1cc2nc3c(=O)[nH]c(=O)nc-3n(C[C@H](O)[C@H](O)[C@H](O)COP(=O)(O)OP(=O)(O)OC[C@H]3O[C@@H](n4cnc5c(N)ncnc54)[C@H](O)[C@@H]3O)c2cc1C [FAD]
  absorbance spectrum, release by trichloroacetic acid and heat: the FAD cofactor in PuORh, like in PuOMr, is not covalently bound
